Measured values reported in patent publication US9328104B2, “Selective androgen receptor modulators” (Pfizer Inc., priority 2012, dated 2016).
Like-named read-outs stand apart in the source and are kept apart here.

Molecular target: T1, full length human Androgen Receptor (AR) (Homo sapiens, UniProt P10275)
T1 construct: transiently transfected in T225 cm^2 flasks with a full length human Androgen Receptor (AR) cDNA; expressed in transfected cells; host or cells: CV-1 cells (ATCC CCL-70), transiently transfected with AR cDNA in pcDNA3 and ARE-luciferase in pGL3
T1 sequence (P10275 1-920): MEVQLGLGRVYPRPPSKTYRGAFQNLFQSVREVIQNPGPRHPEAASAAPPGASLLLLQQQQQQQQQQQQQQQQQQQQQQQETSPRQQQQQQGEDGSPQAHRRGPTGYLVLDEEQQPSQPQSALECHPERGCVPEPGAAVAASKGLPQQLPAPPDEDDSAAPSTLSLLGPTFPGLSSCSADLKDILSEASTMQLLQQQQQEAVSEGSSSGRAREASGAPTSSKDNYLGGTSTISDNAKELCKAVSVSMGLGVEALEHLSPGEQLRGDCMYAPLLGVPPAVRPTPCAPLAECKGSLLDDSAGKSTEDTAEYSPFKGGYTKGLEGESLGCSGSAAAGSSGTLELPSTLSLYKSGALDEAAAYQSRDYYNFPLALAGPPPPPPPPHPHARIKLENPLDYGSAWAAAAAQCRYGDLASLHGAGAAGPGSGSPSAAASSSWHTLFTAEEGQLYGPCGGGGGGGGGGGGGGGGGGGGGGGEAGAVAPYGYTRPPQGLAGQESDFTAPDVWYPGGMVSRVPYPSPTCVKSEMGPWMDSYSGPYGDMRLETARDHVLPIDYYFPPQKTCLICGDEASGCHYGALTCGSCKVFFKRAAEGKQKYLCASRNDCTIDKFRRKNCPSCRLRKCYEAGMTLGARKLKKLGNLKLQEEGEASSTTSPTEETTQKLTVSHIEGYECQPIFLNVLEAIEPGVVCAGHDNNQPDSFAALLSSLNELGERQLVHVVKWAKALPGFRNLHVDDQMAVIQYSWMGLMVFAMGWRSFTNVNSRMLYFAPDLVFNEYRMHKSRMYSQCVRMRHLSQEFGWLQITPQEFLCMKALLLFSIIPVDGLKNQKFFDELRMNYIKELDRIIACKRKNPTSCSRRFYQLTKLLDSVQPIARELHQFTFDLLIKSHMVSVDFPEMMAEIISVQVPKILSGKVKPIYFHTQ
Assay: Androgen Receptor-Mediated Transcriptional Assay (ARE-luciferase reporter in transiently transfected CV-1 cells)
Format: cell-based
Protocol: Androgen Receptor-Mediated Transcriptional Assay Summary
CV-1 cells (American Tissue Culture Collection cat# CCL-70) were expanded in Growth Media and transiently transfected in T225 cm^2 flasks with a full length human Androgen Receptor (AR) cDNA in the pcDNA3 expression vector and a human Androgen Response Element (ARE)-luciferase cDNA in the pGL3 vector (both from Invitrogen). DNA (μg) and Lipofectamine (μl) at a ratio of 1:3 were incubated with the cells in a total volume of 55 mL Basal Media for 4 hours. Cells were harvested by trypsinization and frozen back (−150° C. cryomed) at a concentration of 4.3 million cells/mL.
On the day of the assay, frozen cells were thawed and re-suspended in Re-suspension Media and plated at 40,000 cells/well (in 100 μL volume) in 96 well white plates and were incubated for at least 4 h at 37° C., 5% CO2. After incubation, cells were treated with the compounds to be screened. 10 mM stocks of the compounds were serially diluted 1:10 in 100% DMSO followed by an additional 1:100 dilution in Assay Media. These dilution series were added to the cell plates resulting in a further 1:10 dilution and a final % DMSO of 0.1%. The vehicle control wells also contained this dilution of DMSO and the positive control wells contained […] (DHT) as an AR agonist at final concentration of 0.3 nM in 0.1% DMSO. Cells were incubated for 16-18 hours at 37° C. and 5% CO2. Then the culture media was removed from and the cells were lysed in 20 μL of cell lysis reagent for 5 minutes at room temperature. 50 μL of luciferase reagent was added to each well and luminescence, over 5 seconds, was measured.
EC50 (half maximal effective concentration) was calculated from concentration series plots which generated sigmoidal curves. Xlfit software was used to plot the best fit of the % effect vs concentration and to calculate the EC50.
Reagents and Materials used in the Androgen Receptor-Mediated Transcriptional Assay include the following: • Growth Media—DMEM/high glucose—10% FBS: 500 ml phenol red DMEM/high glucose (Gibco, Grand Island N.Y., cat #10569-010), 10% non heat-inactivated Fetal Bovine Serum (FBS) (Atlanta Biologicals, Norcross Ga., cat #S-12450), 1% Nonessential Amino Acids (Gibco, cat #11140-050), 1% Penicillin-Streptomycin (Gibco, cat #15140-122) • Basal Media—phenol red free DMEM/high glucose (Gibco, cat #31053-028)+1% Na Pyruvate (Gibco, cat #11360-070), 1% Nonessential Amino Acids (Gibco, cat #11140-050), 1% GlutaMAX-I (Gibco, cat #35050-061) • Re-suspension Media—basal media+1% Penicillin-Streptomycin (Gibco, cat #15140-122) • Assay Media—basal media+5% charcoal stripped FBS (HyClone, Logan Utah, Cat #SH30068)+1% Penicillin-Streptomycin (Gibco, cat #15140-122) • Cell Lysis Reagent—Promega, Cat #PAE1531 • Luciferase Reagent—Promega, Cat #PAE1483

[1] = CV-1 cells transfected with human AR and ARE-luciferase, 16-18 hours incubation, luminescence, read-out: EC50 Values for Compounds 1-22 from Androgen Receptor-Mediated Transcriptional Assay

Row | Compound | EC50 [1] [nM] | EC50 [nM] | other results
1 | CCCC1CNS(=O)(=O)N(c2ccc3c(C#N)nccc3c2)C1 (racemic) [Compound 22, 6-(1,1-dioxido-4-propyl-1,2,6-thiadiazinan-2-yl)isoquinoline-1-carbonitrile] | 569 | – | –
2 | C[C@H]1CNS(=O)(=O)N1c1ccc2c(C#N)nccc2c1 [Compound 1, 6-[(3S)-3-methyl-1,1-dioxido-1,2,5-thiadiazolidin-2-yl]isoquinoline-1-carbonitrile] | – | 15 | –
3 | CCN1C[C@@H](C)CN(c2ccc3c(C#N)nccc3c2)S1(=O)=O (single isomer, unassigned) [Compound 16] | – | 262 | –
4 | N#Cc1nccc2cc(N3[C@H](c4cccc(C(F)(F)F)c4)CNS3(=O)=O)ccc12 (single isomer, unassigned) [Compound 6] | 10 | – | –
5 | C[C@H](O)[C@H]1CC[C@@H](C)N1c1ccc2c(C#N)nccc2c1 (single isomer, unassigned) [Compound 39] | – | 37.3 | –
6 | N#Cc1nccc2cc(N3CCC[C@H]3[C@H](O)C(F)(F)F)ccc12 (single isomer, unassigned) [Compound 36] | – | 120 | –
7 | C[C@H]1CCS(=O)(=O)N1c1ccc2c(C#N)nccc2c1 [Compound 8, 6-[(3S)-3-methyl-1,1-dioxido-1,2-thiazolidin-2-yl]isoquinoline-1-carbonitrile] | 271 | – | –
8 | Cc1ccc([C@@H]2CNS(=O)(=O)N(c3ccc4c(C#N)nccc4c3)C2)cc1 (single isomer, unassigned) [Compound 19] | 177 | – | –
9 | N#Cc1nccc2cc(N3[C@H](CC(F)(F)F)CNS3(=O)=O)ccc12 (single isomer, unassigned) [Compound 3] | 79 | – | –
10 | Cc1cccc(C[C@@H]2CNS(=O)(=O)N(c3ccc4c(C#N)nccc4c3)C2)c1 (single isomer, unassigned) [Compound 15] | 195 | – | –
11 | N#Cc1nccc2cc(N3C(=O)CC[C@H]3[C@H](O)C(F)(F)F)ccc12 (single isomer, unassigned) [Compound 33] | – | 231 | –
12 | N#Cc1nccc2cc(N3CCC[C@@H]3[C@@H](O)C(F)(F)F)ccc12 (single isomer, unassigned) [Compound 34] | – | 0.1 | –
13 | CC1CCN(c2ccc3c(C#N)nccc3c2)S(=O)(=O)N1 (racemic) [Compound 17, 6-(5-methyl-1,1-dioxido-1,2,6-thiadiazinan-2-yl)isoquinoline-1-carbonitrile] | 16 | – | –
14 | N#Cc1nccc2cc(N3[C@@H](c4ccc(Cl)cc4)CNS3(=O)=O)ccc12 (single isomer, unassigned) [Compound 7] | 22 | – | –
15 | C[C@@H]1CNS(=O)(=O)N(c2ccc3c(C#N)nccc3c2)C1 [Compound 10, 6-[(4R)-4-methyl-1,1-dioxido-1,2,6-thiadiazinan-2-yl]isoquinoline-1-carbonitrile] | 0.4 | – | –
16 | N#Cc1nccc2cc(N3CC4(CC4)CNS3(=O)=O)ccc12 [Compound 14, 6-(6,6-dioxido-6-thia-5,7-diazaspiro[2.5]oct-5-yl)isoquinoline-1-carbonitrile] | – | 22 | –
17 | Cc1ccc([C@H]2CNS(=O)(=O)N(c3ccc4c(C#N)nccc4c3)C2)cc1 (single isomer, unassigned) [Compound 18] | 20 | – | –
18 | C[C@@H](Nc1ccc2c(C#N)nccc2c1)[C@H](O)C(F)(F)F [Compound 23, 6-{[(2R,3S)-4,4,4-trifluoro-3-hydroxybutan-2-yl]amino}isoquinoline-1-carbonitrile] | – | 5.1 | –

Row | Compound | EC50 [1] [nM] | EC50 [nM] | other results
19 | C[C@H]([C@H](O)C(F)(F)F)N(C)c1ccc2c(C#N)nccc2c1 (single isomer, unassigned) [Compound 27] | – | 12.9 | –
20 | N#Cc1nccc2cc(N3C(=O)CC[C@@H]3[C@H](O)C(F)(F)F)ccc12 (single isomer, unassigned) [Compound 32] | – | 84.3 | –
21 | N#Cc1nccc2cc(N3CCC[C@H]3[C@@H](O)C(F)(F)F)ccc12 (single isomer, unassigned) [Compound 37] | – | 9.1 | –
22 | C[C@H]1CC[C@@H]([C@H](O)C(F)(F)F)N1c1ccc2c(C#N)nccc2c1 (single isomer, unassigned) [Compound 38] | – | 187 | –
23 | C[C@H]1CN(C)S(=O)(=O)N1c1ccc2c(C#N)nccc2c1 [Compound 5] | 5 | – | –
24 | N#Cc1nccc2cc(N3CCCC[C@@H]3[C@@H](O)C(F)(F)F)ccc12 (single isomer, unassigned) [Compound 28] | – | 61.5 | –
25 | N#Cc1nccc2cc(N3C[C@H](c4ccccc4)CNS3(=O)=O)ccc12 [Compound 12] | 217 | – | –
26 | N#Cc1nccc2cc(N3CCCC[C@@H]3[C@H](O)C(F)(F)F)ccc12 (single isomer, unassigned) [Compound 29] | – | 0.02 | –
27 | 6-[(4S)-4-(3-methylphenyl)-1,1-dioxido-1,2,6-thiadiazinan-2-yl]isoquinoline-1-carbonitrile [Compound 20] | 8 | – | –
28 | C[C@H]1CNS(=O)(=O)N(c2ccc3c(C#N)nccc3c2)C1 [Compound 11, 6-[(4S)-4-methyl-1,1-dioxido-1,2,6-thiadiazinan-2-yl]isoquinoline-1-carbonitrile] | 687 | – | –
29 | C[C@H]([C@@H](O)C(F)(F)F)N(C)c1ccc2c(C#N)nccc2c1 (single isomer, unassigned) [Compound 26] | – | 0.1 | –
30 | CC1(C)CNS(=O)(=O)N(c2ccc3c(C#N)nccc3c2)C1 [Compound 13, 6-(4,4-dimethyl-1,1-dioxido-1,2,6-thiadiazinan-2-yl)isoquinoline-1-carbonitrile] | – | 0.7 | –
31 | N#Cc1nccc2cc(N3CCC[C@@H]3[C@H](O)C(F)(F)F)ccc12 (single isomer, unassigned) [Compound 35] | – | 7.4 | –
32 | N#Cc1nccc2cc(N3[C@H](CCc4ccccc4)CNS3(=O)=O)ccc12 (single isomer, unassigned) [Compound 4] | 22 | – | –
33 | 6-{(2R,5R)-2-[(1R)-1-hydroxyethyl]-5-methylpyrrolidin-1-yl}isoquinoline-1-carbonitrile [Compound 31] | – | – | EC50 (CV-1 cells transfected with human AR and ARE-luciferase, 16-18 hours incubation, luminescence, read-out: EC50 Values for Compounds 23-39 from Androgen Receptor-Mediated Transcriptional Assay): 474 nM
34 | CC[C@H]1CNS(=O)(=O)N1c1ccc2c(C#N)nccc2c1 (single isomer, unassigned) [Compound 2] | – | 18 | –
35 | C[C@@H]1CC[C@H]([C@@H](O)C(F)(F)F)N1c1ccc2c(C#N)nccc2c1 [Compound 30, 6-{(2R,5R)-2-methyl-5-[(1R)-2,2,2-trifluoro-1-hydroxyethyl]pyrrolidin-1-yl}isoquinoline-1-carbonitrile] | – | 0.1 | –
36 | 6-[(4S)-4-ethyl-1,1-dioxido-1,2,6-thiadiazinan-2-yl]isoquinoline-1-carbonitrile [Compound 21] | 8 | – | –
